Assay results reported in patent publication US10899776B2, “Antiviral and antibacteria agents based on quaternary ammonium compound complexed with boric acid and its derivatives” (B-Organic Films Corp, priority 2015, dated 2021).

Details: commercial diet supplemented 5 mg/g, fed ad libitum up to 28 days

With `C[N+](C)(C)CCOB1OB2OB(O1)OB1OB(O2)O1.[Cl-]` [choline/pentaborate complex] the “increment in mean weight compared with control group” value was 20%.
